Results as given in PubChem BioAssay AID1745844 (Carcinogenic Potency Database (CPDB), 2022).
The source made the active and inactive calls. No rule for the calls is given here.

Test system: rodent lifetime carcinogenesis bioassay, tumor incidence TD50
Experiment: chronic cancer bioassays in animals – CPDB, compiled studies (AID 1745844)

**Q.** Which TD50 (mouse, strain (C3H x RIII)F1 (MTV+), males, in feed, site: mammary tissue, wider than the gland, lesion: one or several types, types not named, dosed 104 weeks, study length 104 weeks) does the source give for CC(=O)O[C@]1(C(C)=O)CC[C@H]2[C@@H]3C=C(Cl)C4=CC(=O)CC[C@]4(C)[C@H]3CC[C@@]21C (tested in a mixture with another compound) here?
**A.** 1.76 mg/kg/day

**Q.** What about the TD50 (mouse, strain C3H (MTV+), females, in feed, site: mammary tissue, wider than the gland, lesion: one or several types, types not named, dosed 104 weeks, study length 104 weeks) of the same compound?
**A.** 5.98 mg/kg/day

**Q.** And the TD50 (mouse, strain RIII (MTV+), females, in feed, site: mammary tissue, wider than the gland, lesion: one or several types, types not named, dosed 104 weeks, study length 104 weeks)?
**A.** 2.12 mg/kg/day

**Q.** How did the carcinogen call (mouse, strain B6C3F1, females, in feed, site: any site (literature study), lesion: several types, types named in the paper, dosed 103 weeks, study length 104 weeks) turn out when O=S(=O)(O)c1cc(S(=O)(=O)O)c2c(N=Nc3ccccc3)c(O)ccc2c1 was run?
**A.** negative (inactive)

**Q.** What about the carcinogen call (mouse, strain B6C3F1, males, in feed, site: any site (literature study), lesion: several types, types named in the paper, dosed 103 weeks, study length 103 weeks) of the same compound?
**A.** negative (inactive)

**Q.** What about the TD50 (mouse, strain B6C3F1, males, in feed, site: lung, lesion: alveolar/bronchiolar adenoma + alveolar/bronchiolar carcinoma, dosed 103 weeks, study length 103 weeks) of the same compound?
**A.** 22000 mg/kg/day

**Q.** What about the carcinogen call (rat, strain Fischer 344, females, in feed, site: any site (literature study), lesion: several types, types named in the paper, dosed 103 weeks, study length 104 weeks) of the same compound?
**A.** negative (inactive)

**Q.** What about the TD50 (rat, strain Fischer 344, males, in feed, site: any site (literature study), lesion: several types, types named in the paper, dosed 103 weeks, study length 104 weeks) of the same compound?
**A.** 2710 mg/kg/day

**Q.** What about the TD50 (rat, strain Fischer 344, males, in feed, site: liver, lesion: hepatocellular adenoma + hepatocellular carcinoma + neoplastic nodule, dosed 103 weeks, study length 104 weeks) of the same compound?
**A.** 620 mg/kg/day

**Q.** And the TD50 (rat, strain Fischer 344, males, in feed, site: tunica vaginalis, lesion: mesothelioma, NOS + mesothelioma, malignant, dosed 103 weeks, study length 104 weeks)?
**A.** 915 mg/kg/day (inactive)

**Q.** With CC(=O)[O-].CC(=O)[O-].CCC(=O)c1ccc(F)c([C@@H]2C[C@@H]2NC(=O)Nc2ccc(C#N)cn2)c1O.[Zn+2] as the compound, how does the TD50 (hamster, strain Syrian Golden, females, in feed, site: any site (literature study), lesion: several types, types named in the paper, dosed 78 weeks, study length 78 weeks) read?
**A.** 177000 mg/kg/day (inactive)

**Q.** What about the carcinogen call (hamster, strain Syrian Golden, females, in feed, site: liver, lesion: hemangioma, dosed 78 weeks, study length 78 weeks) of the same compound?
**A.** negative (inactive)

**Q.** And the TD50 (hamster, strain Syrian Golden, males, in feed, site: any site (literature study), lesion: several types, types named in the paper, dosed 106 weeks, study length 111 weeks)?
**A.** 54100 mg/kg/day (inactive)

**Q.** And the carcinogen call (hamster, strain Syrian Golden, males, in feed, site: liver, lesion: hemangioma, dosed 106 weeks, study length 111 weeks)?
**A.** negative (inactive)

**Q.** What about the TD50 (rat, strain MRC, females, in feed, site: peripheral nervous system, lesion: one or several types, types not named, dosed 143 weeks, study length 146 weeks) of the same compound?
**A.** 35400 mg/kg/day (inactive)

**Q.** What about the carcinogen call (rat, strain MRC, females, in feed, site: skin, lesion: one or several types, types not named, dosed 143 weeks, study length 146 weeks) of the same compound?
**A.** negative (inactive)

**Q.** And the carcinogen call (rat, strain MRC, males, in feed, site: any site (literature study), lesion: several types, types named in the paper, dosed 139 weeks, study length 141 weeks)?
**A.** negative (inactive)

**Q.** What does the source list for O=c1cc[nH]c(=O)[nH]1?
**A.** TD50 (mouse, strain B6C3F1, females, in feed, site: liver, lesion: hyperplastic nodule, dosed 96 weeks, study length 96 weeks): 18200 mg/kg/day; TD50 (mouse, strain B6C3F1, females, in feed, site: urinary bladder, lesion: carcinoma, in situ, dosed 96 weeks, study length 96 weeks): 56700 mg/kg/day; TD50 (mouse, strain B6C3F1, females, in feed, site: urinary bladder, lesion: leiomyosarcoma, dosed 96 weeks, study length 96 weeks): 56700 mg/kg/day; TD50 (mouse, strain B6C3F1, females, in feed, site: urinary bladder, lesion: transitional-cell carcinoma, dosed 96 weeks, study length 96 weeks): 1450 mg/kg/day; TD50 (mouse, strain B6C3F1, males, in feed, site: liver, lesion: hyperplastic nodule, dosed 96 weeks, study length 96 weeks): 48800 mg/kg/day; TD50 (mouse, strain B6C3F1, males, in feed, site: lung, lesion: adenocarcinoma, dosed 96 weeks, study length 96 weeks): 52300 mg/kg/day; TD50 (mouse, strain B6C3F1, males, in feed, site: urinary bladder, lesion: squamous-cell carcinoma, dosed 96 weeks, study length 96 weeks): 25700 mg/kg/day; TD50 (mouse, strain B6C3F1, males, in feed, site: urinary bladder, lesion: transitional-cell carcinoma, dosed 96 weeks, study length 96 weeks): 25700 mg/kg/day; TD50 (rat, strain F344/DuCrj, females, in feed, site: kidney/pelvis, lesion: carcinoma, dosed 104 weeks, study length 104 weeks): 9760 mg/kg/day; TD50 (rat, strain F344/DuCrj, females, in feed, site: urinary bladder, lesion: squamous-cell papilloma, dosed 104 weeks, study length 104 weeks): 29300 mg/kg/day; TD50 (rat, strain F344/DuCrj, females, in feed, site: urinary bladder, lesion: transitional-cell carcinoma, dosed 104 weeks, study length 104 weeks): 5640 mg/kg/day; TD50 (rat, strain F344/DuCrj, females, in feed, site: urinary bladder, lesion: transitional-cell papilloma, dosed 104 weeks, study length 104 weeks): 4260 mg/kg/day; TD50 (rat, strain F344/DuCrj, males, in feed, site: kidney/pelvis, lesion: carcinoma, dosed 104 weeks, study length 104 weeks): 3090 mg/kg/day; TD50 (rat, strain F344/DuCrj, males, in feed, site: kidney/pelvis, lesion: papilloma, dosed 104 weeks, study length 104 weeks): 5750 mg/kg/day; TD50 (rat, strain F344/DuCrj, males, in feed, site: urinary bladder, lesion: leiomyosarcoma, dosed 104 weeks, study length 104 weeks): 24300 mg/kg/day; TD50 (rat, strain F344/DuCrj, males, in feed, site: urinary bladder, lesion: squamous-cell carcinoma, dosed 104 weeks, study length 104 weeks): 7800 mg/kg/day; TD50 (rat, strain F344/DuCrj, males, in feed, site: urinary bladder, lesion: squamous-cell papilloma, dosed 104 weeks, study length 104 weeks): 24300 mg/kg/day; TD50 (rat, strain F344/DuCrj, males, in feed, site: urinary bladder, lesion: transitional-cell carcinoma, dosed 104 weeks, study length 104 weeks): 357 mg/kg/day; TD50 (rat, strain F344/DuCrj, males, in feed, site: urinary bladder, lesion: transitional-cell papilloma, dosed 104 weeks, study length 104 weeks): 511 mg/kg/day

**Q.** CCN(CC)C(=O)Nc1ccc(OCC(O)CNC(C)(C)C)c(C(C)=O)c1 (stereo unspecified) was tested. Which TD50 (mouse, strain Charles River CD1, females, in feed, site: lung, lesion: several types, types named in the paper, dosed 104 weeks, study length 104 weeks) did it give?
**A.** 8020 mg/kg/day (inactive)

**Q.** And the TD50 (mouse, strain Charles River CD1, males, in feed, site: lung, lesion: several types, types named in the paper, dosed 104 weeks, study length 104 weeks)?
**A.** 4710 mg/kg/day (inactive)

**Q.** And the TD50 (rat, strain Sprague-Dawley, females, in feed, site: any site (literature study), lesion: several types, types named in the paper, dosed 104 weeks, study length 104 weeks)?
**A.** 2480 mg/kg/day (inactive)

**Q.** What about the TD50 (rat, strain Sprague-Dawley, females, in feed, site: liver, lesion: hepatocellular adenoma, dosed 104 weeks, study length 104 weeks) of the same compound?
**A.** 38100 mg/kg/day (inactive)

**Q.** What about the TD50 (rat, strain Sprague-Dawley, females, in feed, site: liver, lesion: hepatocellular carcinoma, dosed 104 weeks, study length 104 weeks) of the same compound?
**A.** 38100 mg/kg/day (inactive)

**Q.** And the TD50 (rat, strain Sprague-Dawley, males, in feed, site: any site (literature study), lesion: several types, types named in the paper, dosed 104 weeks, study length 104 weeks)?
**A.** 684 mg/kg/day (inactive)

**Q.** What about the TD50 (rat, strain Sprague-Dawley, males, in feed, site: liver, lesion: hepatocellular adenoma, dosed 104 weeks, study length 104 weeks) of the same compound?
**A.** 12400 mg/kg/day (inactive)

**Q.** And the carcinogen call (rat, strain Sprague-Dawley, males, in feed, site: liver, lesion: hepatocellular carcinoma, dosed 104 weeks, study length 104 weeks)?
**A.** negative (inactive)

**Q.** Which TD50 (rat, strain Fischer 344, males, in drinking water, site: liver, lesion: hyperplastic nodule, dosed 110 weeks, study length 129 weeks) does the source give for CC=NO here?
**A.** 445 mg/kg/day

**Q.** C=CC(=O)c1ccc2c(c1)OCO2 was tested. Which carcinogen call (rat, strain Charles River CD (Sprague-Dawley), males, in feed, site: liver, lesion: carcinoma, dosed 73 weeks, study length 95 weeks) did it give?
**A.** negative (inactive)

**Q.** How did the TD50 (mouse, strain B6C3F1, females, by gavage, site: any site (literature study), lesion: several types, types named in the paper, dosed 104 weeks, study length 104 weeks) turn out when Cc1cn([C@H]2C[C@H](N=[N+]=[N-])[C@@H](CO)O2)c(=O)[nH]c1=O was run?
**A.** 221 mg/kg/day

**Q.** And the TD50 (mouse, strain B6C3F1, females, by gavage, site: liver, lesion: hepatocellular adenoma + hepatoblastoma + hepatocellular carcinoma, dosed 104 weeks, study length 104 weeks)?
**A.** 139 mg/kg/day

**Q.** And the TD50 (mouse, strain B6C3F1, females, by gavage, site: lung, lesion: alveolar/bronchiolar adenoma + alveolar/bronchiolar carcinoma, dosed 104 weeks, study length 104 weeks)?
**A.** 510 mg/kg/day

**Q.** And the TD50 (mouse, strain B6C3F1, females, by gavage, site: vagina, lesion: squamous-cell carcinoma + squamous-cell papilloma, dosed 104 weeks, study length 104 weeks)?
**A.** 209 mg/kg/day

**Q.** And the TD50 (mouse, strain B6C3F1, females, by gavage, site: vagina, lesion: squamous-cell carcinoma, dosed 104 weeks, study length 104 weeks)?
**A.** 246 mg/kg/day

**Q.** What about the TD50 (mouse, strain B6C3F1, males, by gavage, site: Harderian gland, lesion: adenoma + carcinoma, dosed 104 weeks, study length 104 weeks) of the same compound?
**A.** 458 mg/kg/day

**Q.** And the TD50 (mouse, strain B6C3F1, males, by gavage, site: Harderian gland, lesion: adenoma, dosed 104 weeks, study length 104 weeks)?
**A.** 425 mg/kg/day

**Q.** And the TD50 (mouse, strain B6C3F1, males, by gavage, site: kidney, lesion: tubule adenoma + tubule carcinoma, dosed 104 weeks, study length 104 weeks)?
**A.** 929 mg/kg/day

**Q.** What about the TD50 (mouse, strain B6C3F1, males, by gavage, site: kidney, lesion: tubule adenoma, dosed 104 weeks, study length 104 weeks) of the same compound?
**A.** 1250 mg/kg/day

**Q.** And the TD50 (mouse, strain Charles River CD1, females, by gavage, site: any site (literature study), lesion: several types, types named in the paper, dosed 95 weeks, study length 95 weeks)?
**A.** 131 mg/kg/day

**Q.** What about the TD50 (mouse, strain Charles River CD1, females, by gavage, site: vagina, lesion: several types, types named in the paper, dosed 95 weeks, study length 95 weeks) of the same compound?
**A.** 508 mg/kg/day

**Q.** What about the TD50 (mouse, strain Charles River CD1, females, by gavage, site: vagina, lesion: squamous-cell carcinoma, dosed 95 weeks, study length 95 weeks) of the same compound?
**A.** 715 mg/kg/day

**Q.** And the carcinogen call (mouse, strain Charles River CD1, males, by gavage, site: any site (literature study), lesion: several types, types named in the paper, dosed 82 weeks, study length 82 weeks)?
**A.** negative (inactive)

**Q.** What about the TD50 (rat, strain Charles River CD (Sprague-Dawley), females, by gavage, site: vagina, lesion: squamous-cell carcinoma, dosed 95 weeks, study length 95 weeks) of the same compound?
**A.** 11600 mg/kg/day

**Q.** What about the carcinogen call (rat, strain Charles River CD (Sprague-Dawley), males, by gavage, site: any site (literature study), lesion: several types, types named in the paper, dosed 103 weeks, study length 103 weeks) of the same compound?
**A.** negative (inactive)

**Q.** Which TD50 (rat, strain Fischer 344, females, by gavage, site: esophagus, lesion: squamous-cell carcinoma, dosed 43 weeks, study length 90 weeks) does the source give for CC1SC(C)N(N=O)C(C)S1 (stereo unspecified) here?
**A.** 1.63 mg/kg/day

**Q.** And the TD50 (rat, strain Fischer 344, females, by gavage, site: esophagus, lesion: squamous-cell tumor, dosed 43 weeks, study length 90 weeks)?
**A.** 0.483 mg/kg/day

**Q.** What about the TD50 (rat, strain Fischer 344, females, by gavage, site: liver, lesion: cholangioma, dosed 43 weeks, study length 90 weeks) of the same compound?
**A.** 3.58 mg/kg/day

**Q.** And the TD50 (rat, strain Fischer 344, females, by gavage, site: liver, lesion: hepatocellular adenoma, dosed 43 weeks, study length 90 weeks)?
**A.** 2.61 mg/kg/day

**Q.** What about the TD50 (rat, strain Fischer 344, females, by gavage, site: tongue, lesion: squamous-cell tumor, dosed 43 weeks, study length 90 weeks) of the same compound?
**A.** 1.53 mg/kg/day
